Results from patent US9127001B2, “Substituted 4,5,6,7-tetrahydro-1H-pyrazolo[4,3-c]pyridines, their use as medicament, and pharmaceutical preparations comprising them” (Sanofi, priority 2011, dated 2015).

Experiments:
[1] = system: left atrium of the anesthetized pig; assay: Refractory period and left-atrial vulnerability in the anesthetized pig; assay type: in vivo; conditions: bolus 1 mg/kg, mean value n = 3
Procedure: Investigation of the Refractory Period and the Left-Atrial Vulnerability in the Pig
The compounds were tested for prolongation of the refractory period and antiarrhythmic activity on the atrium of the anesthetized pig as described in the literature (Knobloch et al. 2002. Naunyn-Schmiedberg's Arch. Pharmacol. 366; 482-487). Here the anti-arrhythmic action relates to the inhibition of the occurrence of episodes of arrhythmias which are induced by a prematurely placed extra-stimulus (S2) in the left atrium (=left-atrial vulnerability). The refractory period values are stated in percent of the basal values 15 minutes after injection. Mean values for the refractory periods are shown from three rates (150, 200 and 250/min).
The action of 3-[5-Acetyl-1-(2,4-difluoro-benzyl)-4,5,6,7-tetrahydro-1H-pyrazolo[4,3-c]pyridin-3-yl]-benzonitrile (6a) on the refractory period of the left atrium and antiarrhythmic activity in the anesthetized pig after a bolus administration of 1 mg/kg is shown in table 1. From the results shown in table 1, it is seen that it was possible to prevent 61% of the induced arrhythmias.

Human TASK-1 channels = Human TASK-1 channels (Homo sapiens (Human), UniProt O14649); assay: Activity on the TASK-1 channel in Xenopus oocytes (two-microelectrode voltage clamp); assay type: cell-based; conditions: human TASK-1 expressed in Xenopus oocytes, currents during pulses to 40 mV, room temperature
Procedure, shortened: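 Human TASK-1 was expressed in defolliculated Xenopus laevis oocytes by in vitro-synthesised RNA injection and recorded by two-microelectrode voltage clamp. Oocytes were superfused with ND96 (pH 7.4) at room temperature, with compound added at rising concentrations. IC50 came from a general dose-response fit.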

Sequence of Human TASK-1 channels (O14649 whole entry, the tested form may be a part): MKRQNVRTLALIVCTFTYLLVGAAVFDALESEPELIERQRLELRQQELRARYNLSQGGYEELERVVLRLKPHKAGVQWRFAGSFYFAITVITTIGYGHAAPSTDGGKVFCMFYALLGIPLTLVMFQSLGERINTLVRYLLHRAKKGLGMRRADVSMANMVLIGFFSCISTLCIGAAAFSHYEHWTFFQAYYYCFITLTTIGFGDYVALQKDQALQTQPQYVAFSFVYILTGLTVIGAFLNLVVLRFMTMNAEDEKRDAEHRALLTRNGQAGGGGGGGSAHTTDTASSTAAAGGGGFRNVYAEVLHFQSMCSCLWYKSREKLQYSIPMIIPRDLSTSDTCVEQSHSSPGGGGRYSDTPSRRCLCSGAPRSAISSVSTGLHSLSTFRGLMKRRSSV

- IC50 (Human TASK-1 channels): 95 nM
Compound: CC(=O)N1CCc2c(c(-c3cccc(C#N)c3)nn2Cc2ccc(F)cc2F)C1 [Example 6a, 3-[5-Acetyl-1-(2,4-difluoro-benzyl)-4,5,6,7-tetrahydro-1H-pyrazolo[4,3-c]pyridin-3-yl]-benzonitrile]
- % inhibition of the arrhythmias ([1]; S2-induced arrhythmias, 3 measurements before vs. 3 during first hour after administration): 61%
- % increase in the refractory period ([1]; left atrium, 15 minutes after injection, mean of three rates (150, 200 and 250/min)): 14%
